We go through 20 compounds from patent US9175007B2, “IRAK inhibitors and uses thereof” (Nimbus Iris, Inc., priority 2013, dated 2015).

Structures can show the parent of a compound that is named as a salt. Bounds are passed on as bounds.

The assay deals with T1, IRAK4 (Homo sapiens, UniProt Q9NWZ3).
T1 construct: purchased CARNA Bioscience 09-145
T1 sequence (Q9NWZ3 1-460): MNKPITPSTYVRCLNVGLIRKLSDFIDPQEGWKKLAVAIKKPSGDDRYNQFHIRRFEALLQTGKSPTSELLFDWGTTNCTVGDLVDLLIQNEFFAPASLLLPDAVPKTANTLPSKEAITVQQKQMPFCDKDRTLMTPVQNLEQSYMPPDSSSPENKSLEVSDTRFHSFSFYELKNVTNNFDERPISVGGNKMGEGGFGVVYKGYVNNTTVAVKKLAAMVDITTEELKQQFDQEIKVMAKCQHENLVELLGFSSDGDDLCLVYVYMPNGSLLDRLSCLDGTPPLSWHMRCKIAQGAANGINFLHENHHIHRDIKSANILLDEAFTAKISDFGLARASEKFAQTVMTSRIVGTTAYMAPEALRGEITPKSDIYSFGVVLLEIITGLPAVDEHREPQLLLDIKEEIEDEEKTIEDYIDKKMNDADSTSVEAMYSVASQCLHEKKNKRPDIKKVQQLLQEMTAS
The assay can be described thus: IRAK-4 activity inhibition assay (Caliper). Particulars: 3.5 nM IRAK4, 37 μM ATP, 1.5 μM Peptide 8. In kind it is biochemical. As for the experimental part: A 1× kinase base buffer was prepared from 50 mM HEPES, pH 7.5 and 0.0015% Brij-35. A stop buffer was prepared from 100 mM HEPES, pH 7.5, 0.015% Brij-35, 0.2% Coating Reagent #3, and 50 mM EDTA.
Test compound was diluted to 50× of the final desired highest inhibitor concentration in reaction by 100% DMSO. 100 ul of this compound dilution was transferred to a well in a 96-well plate.
Test compound was serially diluted by transferring 30 μl to 60 μl of 100% DMSO in the next well and so forth for a total of 10 concentrations. 100 μl of 100% DMSO was added to two empty wells for no compound control and no enzyme control in the same 96-well plate.
A new 96-well plate was marked as intermediate plate. 5 μl of compound serial dilution was transferred from source plate to the corresponding wells of the intermediate plate. 45 μl of 1× kinase base buffer (KB buffer) was added to each well of the intermediate plate. The intermediate plate was placed for 10 min on a shaker.
5 μl of each well was transferred from the 96-well intermediate plate to a 384-well plate in duplicates. For example, A1 of the 96-well plate is transferred to A1 and A2 of the 384-well plate. A2 of the 96-well plate is transferred to A3 and A4 of the 384-well plate, and so on.
IRAK4 and DTT in 1× kinase base buffer was added. The 2.5× enzyme mix contained 8.8 nM IRAK4 and 5 mM DTT.
Peptide 8, ATP, MgCl2 and MnCl2 were added in the 1× kinase base buffer. The 2.5× peptide mix contained 3.75 μM peptide 8, 92.5 μM ATP, 12.5 mM MgCl2 and 2.5 mM MnCl2.
Assay plate already contained 5 μl of compound in 10% DMSO. Added 10 μl of 2.5× enzyme solution to each well of the 384-well assay plate, except no enzyme control wells. The final concentration of IRAK4 in reaction was 3.5 nM. Added 10 μl of 1× kinase base buffer to no enzyme control wells in the assay plate. Incubated at room temperature for 10 min.
Added 10 μl of 2.5× peptide solution to each well of the 384-well assay plate. The final concentration of Peptide 8 and ATP was 1.5 μM and 37 μM, respectively. Incubated at 28° C. for 40 minutes. Added 25 μl of stop buffer to stop reaction. Collected data on Caliper.
Copied conversion % data from Caliper program. Converted conversion % values to percent inhibition values. Percent inhibition=(max-conversion %)/(max-min)*100, where “max” means the conversion % of DMSO control and “min” means the conversion % of no enzyme control.
As a reminder, the IC50 is the concentration that inhibits the measured activity by half. For `c1ccc(Nc2nc(N[C@H]3CC[C@H](N4CCOCC4)CC3)c3c4c(sc3n2)CCC4)cc1` [Compound I-1, N4-((1r,4r)-4-morpholinocyclohexyl)-N2-phenyl-6,7-dihydro-5H-cyclopenta[4,5]thieno[2,3-d]pyrimidine-2,4-diamine], the IC50 is ≤ 5 µM. The figure for `CN1CCN(c2ccc(Nc3nc(N[C@H]4CC[C@H](N(C)C)CC4)c4c5c(sc4n3)CCC5)cc2)CC1` [Compound I-69, 12-N-[4-(dimethylamino)cyclohexyl]-10-N-[4-(4-methylpiperazin-1-yl)phenyl]-7-thia-9,11-diazatricyclo[6.4.0.0[2,6]]dodeca-1(8),2(6),9,11-tetraene-10,12-diamine] is ≤ 5 µM; for `Cn1cc(Nc2nc(O[C@H]3CC[C@H](N(C)C)CC3)c3c4c(sc3n2)CC[C@H]4CC(N)=O)cn1` [Compound I-21, 2-[(3S)-12-[[4-(dimethylamino)cyclohexyl]oxy]-10-[(1-methyl-1H-pyrazol-4-yl)amino]-7-thia-9,11-diazatricyclo[6.4.0.0[2,6]]dodeca-1(8),2(6),9,11-tetraen-3-yl]acetamide] it is ≤ 5 µM. `c1coc(Nc2nc(N[C@H]3CC[C@H](N4CCOCC4)CC3)c3c4c(sc3n2)CCC4)n1` [Compound I-9, 12-N-[4-(morpholin-4-yl)cyclohexyl]-10-N-(1,3-oxazol-2-yl)-7-thia-9,11-diazatricyclo[6.4.0.0[2,6]]dodeca-1(8),2(6),9,11-tetraene-10,12-diamine]: the IC50 fell in the range of 5 to 20 µM. Regarding `c1c[nH]c(Nc2nc(N[C@H]3CC[C@H](N4CCOCC4)CC3)c3c4c(sc3n2)CCC4)n1` [Compound I-11, 10-N-(1H-imidazol-2-yl)-12-N-[4-(morpholin-4-yl)cyclohexyl]-7-thia-9,11-diazatricyclo[6.4.0.0[2,6]]dodeca-1(8),2(6),9,11-tetraene-10,12-diamine], the half-maximal inhibitory concentration (IC50) is 20 to 50 µM.

Consider `CN(C)[C@H]1CC[C@H](Nc2nc(Nc3ccc(C4CCNCC4)cc3)nc3sc4c(c23)CCC4)CC1` [Compound I-71, 12-N-[4-(dimethylamino)cyclohexyl]-10-N-[4-(piperidin-4-yl)phenyl]-7-thia-9,11-diazatricyclo[6.4.0.0[2,6]]dodeca-1(8),2(6),9,11-tetraene-10,12-diamine hydrochloride], for which the IC50 is ≤ 5 µM.

As to `CN(C)[C@H]1CC[C@H](Oc2nc(Nc3ccc(N4CCNCC4)cc3)nc3sc4c(c23)C(CC(N)=O)CC4)CC1` (some centres unmarked) [Compound I-18, 2-(12-[[4-(dimethylamino)cyclohexyl]oxy]-10-[[4-(piperazin-1-yl)phenyl]amino]-7-thia-9,11-diazatricyclo[6.4.0.0[2,6]]dodeca-1(12),2(6),8,10-tetraen-3-yl)acetamide], the IC50 was ≤ 5 µM.

`Cn1cc(Nc2nc(NC3CCCCC3)c3c4c(sc3n2)CCC4)cn1` [Compound I-15, 12-N-cyclohexyl-10-N-(1-methyl-1H-pyrazol-4-yl)-7-thia-9,11-diazatricyclo[6.4.0.0[2,6]]dodeca-1(8),2(6),9,11-tetraene-10,12-diamine]: the IC50 was ≤ 5 µM.

Turning to `c1coc(Nc2nc(N[C@H]3CC[C@H](N4CCOCC4)CC3)c3c4c(sc3n2)CCCC4)n1` [Compound I-8, 3-N-[4-(morpholin-4-yl)cyclohexyl]-5-N-(1,3-oxazol-2-yl)-8-thia-4,6-diazatricyclo[7.4.0.0[2,7]]trideca-1(9),2(7),3,5-tetraene-3,5-diamine], the IC50 fell in the range of 5 to 20 µM. Then `CN1CCC(c2ccc(Nc3nc(N[C@H]4CC[C@H](N5CCOCC5)CC4)c4c5c(sc4n3)CCC5)cc2)CC1` [Compound I-10, 10-N-[4-(1-methylpiperidin-4-yl)phenyl]-12-N-[4-(morpholin-4-yl)cyclohexyl]-7-thia-9,11-diazatricyclo[6.4.0.0[2,6]]dodeca-1(8),2(6),9,11-tetraene-10,12-diamine], with ≤ 5 µM. Consider `Fc1cccc(Nc2nc(N[C@H]3CC[C@H](N4CCOCC4)CC3)c3c4c(sc3n2)CCC4)c1` [Compound I-3, N2-(3-fluorophenyl)-N4-((1r,4r)-4-morpholinocyclohexyl)-6,7-dihydro-5H-cyclopenta[4,5]thieno[2,3-d]pyrimidine-2,4-diamine], for which the 50% inhibitory concentration (IC50) is ≤ 5 µM. Regarding `Cn1cc(Nc2nc(O[C@H]3CC[C@H](N(C)C)CC3)c3c4c(sc3n2)CCC4CC(N)=O)cn1` (some centres unmarked) [Compound I-20, 2-(12-[[4-(dimethylamino)cyclohexyl]oxy]-10-[(1-methyl-1H-pyrazol-4-yl)amino]-7-thia-9,11-diazatricyclo[6.4.0.0[2,6]]dodeca-1(8),2(6),9,11-tetraen-3-yl)acetamide], the IC50 was ≤ 5 µM. Take `CN(C)[C@H]1CC[C@H](Oc2nc(Nc3ccc(N4CCNCC4)cc3)nc3sc4c(c23)CCC4)CC1` [Compound I-13, 12-[[4-(dimethylamino)cyclohexyl]oxy]-N-[4-(piperazin-1-yl)phenyl]-7-thia-9,11-diazatricyclo[6.4.0.0[2,6]]dodeca-1(8),2(6),9,11-tetraen-10-amine]: the IC50 was ≤ 5 µM. As for `COc1cccc(Nc2nc(N[C@H]3CC[C@H](N4CCOCC4)CC3)c3c4c(sc3n2)CCC4)c1` [Compound I-5, 10-N-(3-methoxyphenyl)-12-N-[4-(morpholin-4-yl)cyclohexyl]-7-thia-9,11-diazatricyclo[6.4.0.0^[2,6]]dodeca-1(8),2(6),9,11-tetraene-10,12-diamine], the half-maximal inhibitory concentration (IC50) was ≤ 5 µM. For `c1ccc(Nc2nc(N[C@H]3CC[C@H](N4CCOCC4)CC3)c3c4c(sc3n2)CCCC4)cc1` [Compound I-7, 3-N-[4-(morpholin-4-yl)cyclohexyl]-5-N-phenyl-8-thia-4,6-diazatricyclo[7.4.0.0[2,7]]trideca-1(9),2,4,6-tetraene-3,5-diamine], the IC50 is ≤ 5 µM.

Consider `CN(C)[C@H]1CC[C@H](Oc2nc(Nc3ccccc3)nc3sc4c(c23)CCC4)CC1` [Compound I-2, 12-[[4-(dimethylamino)cyclohexyl]oxy]-N-phenyl-7-thia-9,11-diazatricyclo[6.4.0.0[2,6]]dodeca-1(8),2(6),9,11-tetraen-10-amine], for which the half-inhibitory concentration (IC50) was ≤ 5 µM. Turning to `CN(C)[C@H]1CC[C@H](Oc2nc(Nc3ccccc3)nc3sc4c(c23)C(CC(N)=O)CC4)CC1` (some centres unmarked) [Compound I-17, 2-(12-[[4-(dimethylamino)cyclohexyl]oxy]-10-(phenylamino)-7-thia-9,11-diazatricyclo[6.4.0.0^[2,6]]dodeca-1(12),2(6),8,10-tetraen-3-yl)acetamide], the IC50 is ≤ 5 µM.

Take `Cc1cccc(Nc2nc(N[C@H]3CC[C@H](N4CCOCC4)CC3)c3c4c(sc3n2)CCC4)c1` [Compound I-4, N4-((1r,4r)-4-morpholinocyclohexyl)-N2-(m-tolyl)-6,7-dihydro-5H-cyclopenta[4,5]thieno[2,3-d]pyrimidine-2,4-diamine]: the IC50 is ≤ 5 µM. On to `CN1CCN(c2ccc(Nc3nc(O[C@H]4CC[C@H](N(C)C)CC4)c4c5c(sc4n3)CCC5)cc2)CC1` [Compound I-68, 12-[[4-(dimethylamino)cyclohexyl]oxy]-N-[4-(4-methylpiperazin-1-yl)phenyl]-7-thia-9,11-diazatricyclo[6.4.0.0[2,6]]dodeca-1(8),2(6),9,11-tetraen-10-amine], for which the IC50 was ≤ 5 µM. `c1cc(C2CCNCC2)ccc1Nc1nc(N[C@H]2CC[C@H](N3CCOCC3)CC2)c2c3c(sc2n1)CCC3` [Compound I-70, 12-N-[4-(morpholin-4-yl)cyclohexyl]-10-N-[4-(piperidin-4-yl)phenyl]-7-thia-9,11-diazatricyclo[6.4.0.0[2,6]]dodeca-1(8),2(6),9,11-tetraene-10,12-diamine hydrochloride]: the IC50 is ≤ 5 µM.
